Reference: US20220370434A1, “METHODS AND COMPOSITIONS FOR TREATING CANCER” (City of Hope, priority 2019, published 2022)

Assays:
[1] = test system: PD-L1 and PD-L2 in AML cells (MONOMAC 6); test: Expression of PD-L1 and PD-L2 upon DNMT inhibitor treatment; details: for expression of PD-L1/2: in AML
Experimental: Expression of PD-L1, PD-L2, and m^6A abundance upon DNMT inhibitor treatment in AML cells was analyzed. MONOMAC 6 cells were treated with PBS, 1 μM, 3 μM, and 5 μM DAC for 48 hours.

MA9.3ITD AML cells = test: Xenograft AML mouse model with MA9.3ITD cells; details: cells pretreated 100 nM 48 hours; 2 mg/kg/day every other day i.p., ten treatments
Experimental: For xenograft AML models with NRGS mice, the leukemia AML cells, with high endogenous FTO expression, were pretreated with 100 nM FTO inhibitors for 48 hours before transplantation, and drug treatment was started at day 11 after transplantation.
Xenograft AML mouse models and AML PDX mouse models: NRG-SGM3 mice were used for both ‘human-in-mouse’ xeno-transplanation models and PDX models. […] For xenograft mouse, 0.1×10^6 MA9.3ITD cells were transplanted into NRGS recipient mice intravenously. Drug treatment was started from 10 days after transplanatation.

MONOMAC 6 cells = test: Response to DNMT inhibitors after pretreatment; type: cell-based; details: pretreated 64 nM 48 hours; 100 nM DAC or 100 nM AZA
NOMO-1 cells = test: Cell apoptosis assay; type: cell-based; details: 48 hour; 50, 200, 400 nM formula (I); 100, 500, 1000 nM formula (II)
Experimental: Cell cycle and apoptosis assays: Propidium Iodide (PI) DNA staining was chosen to assess the cells located at G0/G1, S, and G2/M stages; while Hoechest 33342 and Pyronin Y was selected to evaluate cells at G0, G1, and S/G2/M phases. For PI staining, 1*10^6 cells were collected, washed once with PBS, and suspended in 1 ml buffer with 0.05 mg/ml PI, 0.1% trisodium citrate, 0.02 mg/ml ribonuclease A, 0.3% NP-40, incubated at 37° C. for 30 minutes, and then applied to flow cytometer directly. As Hochest 33342/Pyronin Y staining, the cells were collected, washed, and re-suspended in 1 ml cell culture medium, stained with 10 μg/ml Hochest 33342 at 37° C. for 45 minutes, and further stained with 0.5 μg/ml Pyronin Y for additional 15 minutes at 37° C. The samples were transferred onto ice before subjected to flow cytometry. Cell apoptosis was validated with PE Annexin V Apoptosis Detection Kit I (559763, BD Biosciences) according to the instructed protocol. Flow cytometry was performed with Fortessa X20 and the related results were analyzed with FlowJo V10 software.

Glioma = test: Anti-tumor effects in solid tumors; type: cell-based
Source text: (§1) Besides in hematopoietic malignancy, FTO also plays oncogenic function in solid tumors, such as glioblastoma (GBM) and lung squamous cell carcinoma (LUSC). To broaden the application of the FTO inhibitors in additional cancers, expression of FTO in various types of cancers was adopted from cBioPortal for Cancer Genomics (http://www.cbioportal.org/).
(§2) Cell culture: For leukemia cells, U937 and MV4-11 were obtained from American Type Culture Collection (ATCC) and cultured in endotoxin-free RPMI1640 supplemented with 10% fetal bovine serum (FBS) (Gemini Bio-Products); K562 (ATCC) was cultured in IMDM with 10% FBS; NOMO-1, ML-2, NB4 were obtained from DSMZ and kept in RPM11640 with 10% FBS; SKNO-1 (DSMZ) was maintained in RPM11640 with 10% FBS and 10 ng/ml GM-CSF; MA9.3ITD (MLL-AF9 plus FLT3-ITD-transformed human CD34^+ cord blood) and MA9.3RAS (MLL-AF9 plus NRasG12D-transformed human CD34^+ cord blood), established by Dr. James Mulloy (30), were maintained in IMDM supplemented with 20% FBS. AML patient-derived primary cells were kept in IDMD supplemented with 20% FBS, 10 ng/ml human cytokines SCF, TPO, FLT3 ligand, IL-3, and IL-6. The glioblastoma cell lines, including 8MGBA, A172 and U87MG were originally maintained by Dr. David Plas from University of Cincinnati, and cultured in RPMI1640 with 10% FBS. Breast tumor cell lines, including ZR-75-1 and MDA-MB-231, were purchased from ATCC, and cultivated in RPMI1640 with 10% FBS. The cell lines from lung cancer, H1993, H2009, and H1437, and pancreatic cancer cells Capan-1 and miAPACA2 were kindly provided by Dr. Ravi Salgia from City of hope, and maintained in RPMI1640 with 10% FBS. All the cells are not among commonly misidentified cells lines, and were tested for Mycoplasma contamination yearly using a PCR Mycoplasma Detection Kit (Applied Biological Materials Inc.). In order to prevent potential contamination, all the mediums were supplemented with Penicillin-Streptomycin (15140122, Life Technologies) and Plasmocin prophylactic (Applied Biological Materials Inc.) according to the manufacture's instruction.

breast tumors = test: Anti-tumor effects in solid tumors; type: cell-based
Source text: as §1, §2

pancreatic cancer = test: Anti-tumor effects in solid tumors; type: cell-based
Source text: as §1, §2

[2] = test system: AML patient-derived CD34+ cells; test: Cell viability of AML patient-derived CD34+ cells; type: cell-based, human; details: 100 nM formula (I), 200 nM formula (II), 48 hours
AML cells = test: Sensitization of AML cells to other therapeutic agents; details: for effect with TKI in inhibiting viability: human AML cells
[3] = Solubility and uptake after i.p. injection (dissection); type: physicochemical, mice; details: yellow/orange crystals in abdomen
Experimental: Mice from PDX mouse model were treated with compound of formula (I) via i.p. injection and later dissected.

[4] = test system: primary AML cells from a relapsed AML patient; test: AML PDX mouse model; details: i.p.
Experimental: (§3) The experiment was repeated with secondary BMT with MA9 leukemic cells. […] 1×10^6 mononuclear cells (MNCs) were isolated from bone marrow of the AML patients and transplanted into NRGS recipient mice. Drug treatment (5 mg/kg/day, every other day treatment, 10 times in total) was started from day 8 after transplantation.
As PDX mouse models, 1×10^6 AML patient derived cells were transplanted into NRGS recipient mice intravenously, and drug treatment was started from 7 days later.

[5] = test system: murine FLT3ITD/NPM1mut leukemic cells; test: Colony forming assay; details: 10 nM or 50 nM
Experimental: (§4) Serial colony-forming assay: The assay was employed as described previously with some modification (31). […] The dishes were incubated at 37° C. in a humidified atmosphere of 5% C02 in air for 7 days. Then, colony cells were collected and replated every 7 days with 20,000 cells/dish for 3 passages. Colony numbers were counted and compared for each passage.

[6] = test system: primary murine MLL-AF9 (MA9) leukemic cells; test: Colony forming assay; details: 1 μM
Experimental: MA9 murine leukemic cells were used for colony forming assay.
as §4

NB4 cells = test: Combination with DNMT inhibitors, cell growth; type: cell-based; details: 48 hours, 256 nM formula (IIa)
Experimental: Cell proliferation was measured. […] This experiment was repeated with NB4 cells. […] Synergistic inhibitory effect of FTO inhibitor together with DNMT inhibitor on cell proliferation was observed.
NB4 AML cells were treated with 256 nM compound of formula (IIa), 1000 nM AZA, 100 nM DAC, or their combinations for 48 hours. Effects of compound of formula (IIa), DAC, AZA and combined effects of compound of formula (IIa) with either DAC or AZA on […] AML cell growth was measured (FIG. 9D).

HONO-1 AML cells = test: Combination with DNMT inhibitors, cell growth; type: cell-based; details: 256 nM formula (IIa), 48 hours
Experimental: HONO-1 AML cells were treated with 256 nM compound of formula (IIa), 1000 nM AZA, 100 nM DAC, or their combinations for 48 hours. Effects of compound of formula (IIa), DAC, AZA and combined effects of compound of formula (IIa) with either DAC or AZA on HONO-1 AML cell growth was measured (FIG. 9C).

Experimental for MA9 murine AML cells: as §3
The study was done following secondary BMT with murine MA9 cells, where drug treatment was initiated 7 days after BMT. […] Treatment strategy for DAC: 0.1 mg/kg/day, three times for one week, two weeks in total, i.p. injection.
The Lin^− progenitor cells were retrovirally transduced with MSCV-Neo-MA9 construct through two rounds of ‘spinoculation’ as described previously (31). […] For secondary BMT assays, primary leukemic mouse bone marrow cells (CD45.2+) were collected and sorted by flow cytometry when the mice developed full-blown AML. The cells were injected into sub-lethally irradiated (570 rads) secondary recipient mice with 0.1×10^6 donor cells per mouse via tail vein injection.

Compound | expression of PD-L1/2 [1] | cell apoptosis (NOMO-1 cells) | growth (Glioma) | growth (breast tumors) | growth (pancreatic cancer) | cell viability [2] | sensitization to ATRA, DNR, Ara-C, Aza and DAC (AML cells) | effect with TKI in inhibiting viability (AML cells) | also measured
Nc1ncn([C@@H]2O[C@H](CO)[C@@H](O)[C@H]2O)c(=O)n1 [AZA, 5-azacytidine] | upregulation of PD-L1/2 | – | – | – | – | – | – | – | –
Nc1ncn([C@H]2C[C@H](O)[C@@H](CO)O2)c(=O)n1 [DAC, 5-aza-2′-deoxycytidine] | upregulation of PD-L1/2 | – | – | – | – | – | – | – | expression of PD-L1 and PD-L2 ([1]; MONOMAC 6, 1 μM, 3 μM, 5 μM, 48 hours): induced expression of PD-L1 and PD-L2 in a dose dependent manner
Cc1noc(C)c1-c1cc(Cl)c(Nc2ccccc2C(=O)NO)c(Cl)c1 [FB23-2, reference compound] | – | – | – | – | – | – | – | – | survival (Kaplan-Meier) (MA9.3ITD AML cells): lived significantly longer than the control groups
C(=N\NC1=NCCN1)/c1c2ccccc2c(/C=N/NC2=NCCN2)c2ccccc12 [formula (I)] | – | dose-dependent increase in cell apoptosis | growth disadvantage | growth disadvantage | growth disadvantage | significantly decreased cell viability of AML | sensitize AML cells | synergize with TKI | inhibition of cell proliferation by DAC or AZA after pretreatment (MONOMAC 6 cells): increased inhibition in cell proliferation; solubility and uptake [3]: extreme low solubility and uptake
Cc1c(-c2ccc(-c3ccccc3F)cc2)nc2ccc(F)cc2c1C(=O)O [formula (II)] | – | dose-dependent increase in cell apoptosis | growth disadvantage | growth disadvantage | growth disadvantage | significantly decreased cell viability of AML | sensitize AML cells | synergize with TKI | anti-leukemia effect, survival (Kaplan-Meier) ([4]; 5 mg/kg/day every other day, 10 times, in PBS): strong anti-leukemia effect; anti-leukemia effect, engraftment of AML patient cells into bone marrow ([4]; hCD45 and hCD33 positive cells at day 26): strong anti-leukemia effect; effect with DAC on survival (Kaplan-Meier) (MA9 murine AML cells; 5 mg/kg/day FTO inhibitor, DAC 0.1 mg/kg/day i.p.): synergistic effect; anti-leukemia effects (delaying leukemogenesis, improving survival) (MA9 murine AML cells; 5 mg/kg/day every other day, ten treatments, i.p. or i.v. (micelle)): promising anti-leukemia effects
O=C(O)c1cc(-c2ccc(-c3ccccc3)cc2)nc2ccccc12 [formula (IIa)] | – | – | – | – | – | – | – | – | inhibitory effect on colony forming activity compared with formula (II) [5]: slightly stronger inhibitory effect; colony forming activity ([5]; b415): dose dependent decreased colony forming activity; colony forming activity [6]: decreased colony forming activity; inhibitory effect on colony forming activity compared with formula (II) [6]: slightly stronger inhibitory effect; effect with DAC on cell growth (NB4 cells; 100 nM DAC): synergistic effects; effect with AZA on cell growth (NB4 cells; 1000 nM AZA): synergistic effects; effect with DAC on cell growth (HONO-1 AML cells; 100 nM DAC): synergistic effects; effect with AZA on cell growth (HONO-1 AML cells; 1000 nM AZA): synergistic effects
